Holding throughout (assay type): cell-based
Assay [1] has as its system Escherichia coli ATCC 25922. The method, then:
(§1) The antibacterial activity of the peptides of this invention was evaluated by determining the minimal inhibitory concentration (MIC) of bacterial growth.
(§2) Each peptide was incubated in microtitration plates, at concentrations that decreased form 320 to 0.1 micrograms/ml, in which the wells contained a final volume of 0.1 ml of Mueller-Hinton broth with 3-5x10⁴ bacteria at the semi-logarithmic growth phase.
(§3) In each experiment, the MIC of Bac5 and Bac7 were also measured, for the purpose of comparison.
(§4) In these assays, the following bacterial strains were used: Escherichia coli ATCC 25922, Salmonella typhimurium ATCC 14028, Klebsiella pneumoniae ATCC 13883 and Enterobacter cloacae ATCC 13047.

The subject of assay [2] is Enterobacter cloacae ATCC 13047. Here is the method:
as §1, §2, §3, §4

The subject of assay [3] is Salmonella typhimurium ATCC 14028. The method, then:
as §1, §2, §3, §4

Assay [4] relates to Klebsiella pneumoniae ATCC 13883. Here is the method: as §1, §2, §3, §4
Where [5] appears, read: Escherichia coli ATCC 25922, Mueller-Hinton broth, 3-5x10⁴ bacteria, 16 hours at 37° C.
The mark [6] stands for this setting: Salmonella typhimurium ATCC 14028, Mueller-Hinton broth, 3-5x10⁴ bacteria, 16 hours at 37° C.
The mark [7] stands for this setting: Enterobacter cloacae ATCC 13047, Mueller-Hinton broth, 3-5x10⁴ bacteria, 16 hours at 37° C.
The mark [8] stands for this setting: Klebsiella pneumoniae ATCC 13883, Mueller-Hinton broth, 3-5x10⁴ bacteria, 16 hours at 37° C.

Here are results for four sequences from patent EP0665239A1, “Peptide derivatives of bactenecin endowed with antibacterial activity” (CONSIGLIO NAZIONALE DELLE RICERCHE, priority 1994, dated 1995).

Like-named read-outs stand apart in the source and are kept apart here. No end group written: not given here.

For “RRIRPRPPRLPRPRPRPL [Peptide D, Arg-Arg-Ile-Arg-Pro-Arg-Pro-Pro-Arg-Leu-Pro-Arg-Pro-Arg-Pro-Arg-Pro-Leu]”, the MIC in assay [1] (ATCC 25922) was 1.0 µM; in assay [1] (setting [5]), 2.5 µg/mL; in assay [2] (ATCC 13047), 0.5 to 1.0 µM; in assay [2] (ATCC 13047, 16 h), 1.2 to 2.5 µg/mL; in assay [3] (ATCC 14028), 0.5 µM; in assay [3] (setting [6]) it was 1.2 µg/mL. Moreover, the minimum inhibitory concentration (MIC) in assay [4] (ATCC 13883) lay in the range of 0.2 to 0.5 µM; in assay [4] (ATCC 13883, 16 h), 0.6 to 1.2 µg/mL.

For the sequence “RRIRPRPPRLPRPRPRPLPFPRPGPRPIPRPLPFP [Peptide A]”, the MIC is 0.3 µM in assay [1] (ATCC 25922); 1.2 µg/mL in assay [1] (setting [5]); 0.15 µM in assay [2] (ATCC 13047); 0.6 µg/mL in assay [2] (setting [7]); 0.15 to 0.3 µM in assay [3] (ATCC 14028); 0.6 to 1.2 µg/mL in assay [3] (ATCC 14028, 16 h). Also, the MIC in assay [4] (ATCC 13883) lay in the range of 0.15 to 0.3 µM; in assay [4] (ATCC 13883, 16 h), 0.6 to 1.2 µg/mL.

On to RFRPPIRRPPIRPPFYPPFRPPIRP [Peptide C], for which the MIC is 0.8 to 1.6 µM in assay [1] (ATCC 25922); 2.5 to 5 µg/mL in assay [1] (ATCC 25922, 16 h); 0.8 to 1.6 µM in assay [2] (ATCC 13047); 2.5 to 5 µg/mL in assay [2] (ATCC 13047, 16 h); 0.8 µM in assay [3] (ATCC 14028); 2.5 µg/mL in assay [3] (setting [6]). In addition, the MIC stood at 0.8 µM in assay [4] (ATCC 13883) and 2.5 µg/mL in assay [4] (setting [8]).

For RRIRPRPPRLPRPRPRPLPFPRP [Peptide B], the MIC was 0.4 to 0.8 µM in assay [1] (Escherichia coli ATCC 25922, MICs of Table 1 expressed in molar terms); 1.2 to 2.5 µg/mL in assay [1] (setting [5]); 0.2 to 0.4 µM in assay [2] (Enterobacter cloacae ATCC 13047, MICs of Table 1 expressed in molar terms); 0.6 to 1.2 µg/mL in assay [2] (setting [7]); 0.2 to 0.4 µM in assay [3] (Salmonella typhimurium ATCC 14028, MICs of Table 1 expressed in molar terms); 0.6 to 1.2 µg/mL in assay [3] (setting [6]). For the same sequence, the MIC in assay [4] (Klebsiella pneumoniae ATCC 13883, MICs of Table 1 expressed in molar terms) fell in the range of 0.2 to 0.4 µM; in assay [4] (setting [8]) it was 0.6 to 1.2 µg/mL.

The MIC is the smallest concentration in the dilution series that meets the test's criterion for growth inhibition. Read a low MIC as greater potency.
